# “And” between values parts separate entries of the source, which are not always exact repeats. Equal values may be shown once. Toxic doses and inconclusive results are not listed. Square brackets hold non-standard residues; d marks the D form. Peptide text beside a SMILES is read from it. ξ: configuration not given here. Ac5c = NC1(C(=O)O)CCCC1; ξS = NC(CO)C(=O)O
# Test system: P388 leukemia ip, CD2F1 mice, survival T/C
# Test: NCI In Vivo Anticancer Drug Screen. Data for tumor model P388 Leukemia (intraperitoneal) in CD2F1 (CDF1) mice
# Details: endpoint: median survival time, higher = longer survival
# Outline: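 Mice carrying the transplanted tumor received test compound or vehicle. Survival was recorded in each group, and the value is the treated-group measurement divided by that of the vehicle-treated control group.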
# [1] = dose: 50.0 mg/kg/injection, schedule: Q01DX005 (ip), vehicle: saline
# [2] = dose: 100.0 mg/kg/injection, schedule: Q01DX005 (ip), vehicle: saline
# [3] = dose: 200.0 mg/kg/injection, schedule: Q01DX005 (ip), vehicle: saline
# [4] = dose: 50.0 mg/kg/injection, schedule: Q01DX009 (ip), vehicle: saline with Tween-80
# [5] = dose: 100.0 mg/kg/injection, schedule: Q01DX009 (ip), vehicle: saline with Tween-80
# [6] = dose: 100.0 mg/kg/injection, schedule: Q04DX003 (ip), vehicle: saline with Tween-80
# [7] = dose: 200.0 mg/kg/injection, schedule: Q04DX003 (ip), vehicle: saline with Tween-80
# [8] = dose: 50.0 mg/kg/injection, schedule: Q01DX009 (ip), vehicle: Klucel (hydroxypropylcellulose) (HPC)
# [9] = dose: 200.0 mg/kg/injection, schedule: Q01DX009 (ip), vehicle: Klucel (hydroxypropylcellulose) (HPC)
# [10] = dose: 50.0 mg/kg/injection, schedule: Q01DX009 (ip), vehicle: saline
# [11] = dose: 60.0 mg/kg/injection, schedule: Q01DX005 (ip), vehicle: Klucel (hydroxypropylcellulose) (HPC)
# [12] = dose: 120.0 mg/kg/injection, schedule: Q01DX005 (ip), vehicle: Klucel (hydroxypropylcellulose) (HPC)
# [13] = dose: 240.0 mg/kg/injection, schedule: Q01DX005 (ip), vehicle: Klucel (hydroxypropylcellulose) (HPC)
smiles,measurement,setting,value
O=C(NC1CCC1)OCc1c(COC(=O)NC2CCC2)c(-c2ccc(Cl)c(Cl)c2)n2c1CCC2,T/C,"dose: 3.13 mg/kg/injection, schedule: Q01DX009 (ip), vehicle: distilled water + Tween-80",117 % of control
same,T/C,"dose: 12.5 mg/kg/injection, schedule: Q01DX009 (ip), vehicle: distilled water + Tween-80",155 % of control
same,T/C,"dose: 25.0 mg/kg/injection, schedule: Q01DX009 (ip), vehicle: distilled water + Tween-80",173 % of control and 194 % of control
CCOC(=O)C(CO)NC(=O)C1(NC(C)=O)CCCC1 (stereo not drawn) (Ac-[Ac5c]-[ξS]-OEt),T/C,[1],100 % of control
same,T/C,[2],100 % of control
same,T/C,[3],100 % of control
Nc1snnc1C(=S)NC=S,T/C,"dose: 100.0 mg/kg/injection, schedule: Q01DX001 (ip), vehicle: saline",102 % of control
same,T/C,"dose: 200.0 mg/kg/injection, schedule: Q01DX001 (ip), vehicle: saline",105 % of control
same,T/C,"dose: 400.0 mg/kg/injection, schedule: Q01DX001 (ip), vehicle: saline",100 % of control
O=C1C(Cl)=C(N2CCOCC2)C(=O)C(Cl)=C1N1CCOCC1,T/C,"dose: 50.0 mg/kg/injection, schedule: Q01DX005 (ip), vehicle: suspension in saline",99 % of control
same,T/C,"dose: 100.0 mg/kg/injection, schedule: Q01DX005 (ip), vehicle: suspension in saline",104 % of control
COc1cc2c(c3c1OCO3)-c1ccc(OC)c(=O)cc1C(NC(C)=O)CC2 (stereo not drawn),T/C,"dose: 1.25 mg/kg/injection, schedule: Q01DX009 (ip), vehicle: Klucel (hydroxypropylcellulose) (HPC)",108 % of control
same,T/C,"dose: 2.5 mg/kg/injection, schedule: Q01DX009 (ip), vehicle: Klucel (hydroxypropylcellulose) (HPC)",104 % of control
same,T/C,"dose: 5.0 mg/kg/injection, schedule: Q01DX009 (ip), vehicle: Klucel (hydroxypropylcellulose) (HPC)",111 % of control
same,T/C,"dose: 10.0 mg/kg/injection, schedule: Q01DX009 (ip), vehicle: Klucel (hydroxypropylcellulose) (HPC)",116 % of control
same,T/C,"dose: 20.0 mg/kg/injection, schedule: Q01DX009 (ip), vehicle: Klucel (hydroxypropylcellulose) (HPC)",118 % of control
O=C(Nc1cccc2c(NC(=O)N3CCCCC3)cccc12)N1CCCCC1,T/C,"dose: 15.0 mg/kg/injection, schedule: Q01DX005 (ip), vehicle: saline with Tween-80",94 % of control
same,T/C,"dose: 30.0 mg/kg/injection, schedule: Q01DX005 (ip), vehicle: saline with Tween-80",93 % of control
same,T/C,"dose: 120.0 mg/kg/injection, schedule: Q01DX005 (ip), vehicle: saline with Tween-80",86 % of control
same,T/C,"dose: 240.0 mg/kg/injection, schedule: Q01DX005 (ip), vehicle: saline with Tween-80",100 % of control
CNC1CC(C)(O)Cc2cc3c(c(O)c21)C(=O)c1c(O)cc2c(c1C3=O)OC1OC2(C)C(O)C(N(C)C)C1O (stereo not drawn),T/C,"dose: 12.5 mg/kg/injection, schedule: Q01DX009 (ip), vehicle: other",153 % of control
same,T/C,"dose: 25.0 mg/kg/injection, schedule: Q01DX009 (ip), vehicle: other",158 % of control
CCCCCCCCCCCCCCCCCCCCCC(=O)OC,T/C,[4],100 % of control
same,T/C,[5],100 % of control
same,T/C,[6],91 % of control
same,T/C,"dose: 200.0 mg/kg/injection, schedule: Q01DX009 (ip), vehicle: saline with Tween-80",100 % of control
same,T/C,[7],87 % of control
COc1cc2oc3c(c(=O)c2c(O)c1/C=C/C(C)C)C(C=C(C)C)Oc1cc(O)ccc1-3 (stereo not drawn),T/C,[8],124 % of control
same,T/C,"dose: 100.0 mg/kg/injection, schedule: Q01DX009 (ip), vehicle: Klucel (hydroxypropylcellulose) (HPC)",115 % of control
same,T/C,[9],114 % of control
CN(C)CCSC(=O)N1c2ccccc2C(C)(C)c2ccccc21,T/C,[10],102 % of control
same,T/C,"dose: 100.0 mg/kg/injection, schedule: Q01DX009 (ip), vehicle: saline",103 % of control
CCOC(=O)c1c(N)sc2c1CCCCC2,T/C,[6],100 % of control
same,T/C,[7],104 % of control
same,T/C,"dose: 400.0 mg/kg/injection, schedule: Q04DX003 (ip), vehicle: saline with Tween-80",100 % of control
CC1Cc2ccc(OCCN(C)C)cc2C1O (stereo not drawn),T/C,[1],104 % of control
same,T/C,[2],102 % of control
same,T/C,[3],104 % of control
COc1cc(N)c(S(=O)(=O)O)cc1N=N/C(=N/Nc1cc(S(=O)(=O)O)c(N)cc1OC)C(=O)Nc1ccccc1,T/C,"dose: 50.0 mg/kg/injection, schedule: Q01DX005 (ip), vehicle: Klucel (hydroxypropylcellulose) (HPC)",107 % of control
same,T/C,"dose: 100.0 mg/kg/injection, schedule: Q01DX005 (ip), vehicle: Klucel (hydroxypropylcellulose) (HPC)",104 % of control
same,T/C,"dose: 200.0 mg/kg/injection, schedule: Q01DX005 (ip), vehicle: Klucel (hydroxypropylcellulose) (HPC)",109 % of control
O=C(CBr)N1c2ccccc2S(=O)(=O)c2ccc3ccccc3c21,T/C,[8],116 % of control and 122 % of control
same,T/C,[9],119 % of control
COc1c(I)c2c(c(OC)c1OC)-c1ccc(OC)c(=O)cc1C(NC(C)=O)CC2 (stereo not drawn),T/C,"dose: 6.25 mg/kg/injection, schedule: Q01DX009 (ip), vehicle: Klucel (hydroxypropylcellulose) (HPC)",178 % of control
same,T/C,"dose: 12.5 mg/kg/injection, schedule: Q01DX009 (ip), vehicle: Klucel (hydroxypropylcellulose) (HPC)",167 % of control
CCOC(=O)Nc1cccc([N+](=O)[O-])c1,T/C,"dose: 100.0 mg/kg/injection, schedule: Q04DX003 (ip), vehicle: other",95 % of control
same,T/C,"dose: 200.0 mg/kg/injection, schedule: Q04DX003 (ip), vehicle: other",95 % of control
same,T/C,"dose: 400.0 mg/kg/injection, schedule: Q04DX003 (ip), vehicle: other",100 % of control
O=C(Nc1ccc(Cl)cc1)Nc1nnc(-c2cccc(-c3nnc(NC(=O)Nc4ccc(Cl)cc4)o3)c2)o1,T/C,[11],94 % of control
same,T/C,[12],96 % of control
same,T/C,[13],97 % of control
CCCCCCN=Cc1c(O)c(O)c(C(C)C)c2cc(C)c(-c3c(C)cc4c(C(C)C)c(O)c(O)c(C=NCCCCCC)c4c3O)c(O)c12,T/C,"dose: 12.0 mg/kg/injection, schedule: Q01DX005 (ip), vehicle: saline with Tween-80",100 % of control
same,T/C,"dose: 25.0 mg/kg/injection, schedule: Q01DX005 (ip), vehicle: saline with Tween-80",92 % of control
same,T/C,"dose: 50.0 mg/kg/injection, schedule: Q01DX005 (ip), vehicle: saline with Tween-80",96 % of control
O=c1[nH]c2c([N+](=O)[O-])cc(Cl)cc2nc1/C=C(\O)c1ccccn1,T/C,[11],101 % of control
same,T/C,[12],99 % of control
same,T/C,[13],98 % of control
Nc1nc(N)c2c(Cl)c(CNc3ccc(C(=O)NC(CC(=O)O)C(=O)O)cc3)ccc2n1 (stereo not drawn),T/C,"dose: 0.39 mg/kg/injection, schedule: Q01DX009 (ip), vehicle: saline with Tween-80",210 % of control
same,T/C,"dose: 0.78 mg/kg/injection, schedule: Q01DX009 (ip), vehicle: saline with Tween-80",201 % of control
same,T/C,"dose: 1.56 mg/kg/injection, schedule: Q01DX009 (ip), vehicle: saline with Tween-80",90 % of control
same,T/C,"dose: 780.0 micrograms/kg/injection, schedule: Q01DX009 (ip), vehicle: saline with Tween-80",194 % of control
same,T/C,"dose: 1560.0 micrograms/kg/injection, schedule: Q01DX009 (ip), vehicle: saline with Tween-80",94 % of control
Cc1cc(N=Nc2ccc(N=Nc3ccc(S(=O)(=O)O)cc3)cc2)cc(C(=O)O)c1O,T/C,"dose: 12.5 mg/kg/injection, schedule: Q01DX009 (ip), vehicle: saline",114 % of control
same,T/C,"dose: 25.0 mg/kg/injection, schedule: Q01DX009 (ip), vehicle: saline",113 % of control
same,T/C,[10],91 % of control and 96 % of control
same,T/C,"dose: 200.0 mg/kg/injection, schedule: Q01DX009 (ip), vehicle: saline",93 % of control
COc1ccc(-c2sc(/N=C/c3cc(Br)cc(Br)c3O)c(C#N)c2C)cc1OC,T/C,"dose: 12.5 mg/kg/injection, schedule: Q01DX009 (ip), vehicle: saline with Tween-80",103 % of control
same,T/C,"dose: 25.0 mg/kg/injection, schedule: Q01DX009 (ip), vehicle: saline with Tween-80",97 % of control
same,T/C,[4],99 % of control
same,T/C,[5],94 % of control
COc1ccc(-c2nn3c(=O)c(Cc4ccccc4)c(O)nc3nc2-c2ccccc2)cc1,T/C,"dose: 6.25 mg/kg/injection, schedule: Q01DX005 (ip), vehicle: Klucel (hydroxypropylcellulose) (HPC)",103 % of control
same,T/C,"dose: 12.5 mg/kg/injection, schedule: Q01DX005 (ip), vehicle: Klucel (hydroxypropylcellulose) (HPC)",93 % of control
Cc1c([N+](=O)[O-])cc(Br)c2ccccc12,T/C,"dose: 25.0 mg/kg/injection, schedule: Q01DX009 (ip), vehicle: water",108 % of control
same,T/C,"dose: 50.0 mg/kg/injection, schedule: Q01DX009 (ip), vehicle: water",94 % of control
same,T/C,"dose: 100.0 mg/kg/injection, schedule: Q01DX009 (ip), vehicle: water",93 % of control
O=C1Cc2csc3nc(=O)cc(n23)N1,T/C,[1],94 % of control
same,T/C,[2],97 % of control
same,T/C,[3],88 % of control

# From PubChem BioAssay AID330 (DTP/NCI, 2004)
